# Measurements reported in patent US20210346359A1, “Use of CFTR Modulators For Treating Cerebrovascular Conditions” (Qanatpharma AG, priority 2018, published 2021).
# Entries after “also recorded” stand apart in the source; their conditions may differ.
# Assays:
# [1] = target: CFTR (Mus musculus, UniProt P26361); assay: CFTR protein in cerebral arteries of mice with heart failure; assay type: in vivo; design: Cerebral artery lysates were prepared by grinding artery samples in lysis buffer; from tissue; host or cells: cerebral arteries of male wild-type C57BL/6N mice (naïve, heart failure or subarachnoid hemorrhage models); conditions: 6 weeks post-ligation, 3 mg/kg daily for 2 days
# Sequence of CFTR (P26361 whole entry): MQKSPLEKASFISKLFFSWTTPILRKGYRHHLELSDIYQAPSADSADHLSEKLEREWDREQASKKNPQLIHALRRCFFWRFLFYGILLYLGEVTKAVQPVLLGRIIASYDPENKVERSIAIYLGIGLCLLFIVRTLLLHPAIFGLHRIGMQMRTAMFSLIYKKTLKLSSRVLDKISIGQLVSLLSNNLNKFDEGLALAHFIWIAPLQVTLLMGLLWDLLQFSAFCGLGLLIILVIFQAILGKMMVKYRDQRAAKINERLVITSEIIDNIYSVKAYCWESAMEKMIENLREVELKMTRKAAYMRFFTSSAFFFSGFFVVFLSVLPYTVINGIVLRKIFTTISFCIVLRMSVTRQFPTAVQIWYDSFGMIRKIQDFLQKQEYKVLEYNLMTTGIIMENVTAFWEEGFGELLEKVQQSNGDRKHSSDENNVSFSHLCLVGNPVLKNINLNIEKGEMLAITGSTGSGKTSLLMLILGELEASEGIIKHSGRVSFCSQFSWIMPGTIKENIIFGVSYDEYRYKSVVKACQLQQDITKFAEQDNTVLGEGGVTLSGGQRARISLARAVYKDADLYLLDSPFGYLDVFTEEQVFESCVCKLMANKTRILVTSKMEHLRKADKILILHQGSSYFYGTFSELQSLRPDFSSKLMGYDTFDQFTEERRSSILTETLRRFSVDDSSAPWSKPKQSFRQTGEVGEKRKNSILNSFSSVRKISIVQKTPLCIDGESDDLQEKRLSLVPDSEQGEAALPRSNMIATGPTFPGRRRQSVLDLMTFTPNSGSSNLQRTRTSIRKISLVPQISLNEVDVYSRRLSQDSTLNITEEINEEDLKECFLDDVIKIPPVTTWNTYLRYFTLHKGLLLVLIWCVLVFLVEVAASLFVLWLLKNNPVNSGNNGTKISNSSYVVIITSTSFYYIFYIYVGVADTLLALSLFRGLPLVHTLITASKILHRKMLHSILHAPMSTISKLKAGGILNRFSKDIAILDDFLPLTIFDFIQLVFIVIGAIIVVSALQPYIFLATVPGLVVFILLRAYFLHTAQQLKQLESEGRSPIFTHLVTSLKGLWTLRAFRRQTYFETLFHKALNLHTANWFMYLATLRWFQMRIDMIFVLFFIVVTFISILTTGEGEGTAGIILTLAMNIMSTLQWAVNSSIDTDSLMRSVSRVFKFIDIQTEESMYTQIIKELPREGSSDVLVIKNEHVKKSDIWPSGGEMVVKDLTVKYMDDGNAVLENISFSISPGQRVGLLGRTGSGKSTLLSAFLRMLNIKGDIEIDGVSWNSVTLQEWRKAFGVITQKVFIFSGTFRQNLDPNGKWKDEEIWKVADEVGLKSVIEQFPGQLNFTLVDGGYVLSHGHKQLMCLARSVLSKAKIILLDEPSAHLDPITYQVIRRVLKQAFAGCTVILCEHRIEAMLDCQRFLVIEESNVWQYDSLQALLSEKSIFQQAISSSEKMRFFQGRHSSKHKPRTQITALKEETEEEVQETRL
# Method: Western blots for CFTR were completed as previously described (12, 18). Cerebral artery lysates were prepared by grinding artery samples in lysis buffer containing 50 mM Tris (pH 7.3), 150 mM NaCl, 2 mM […], 0.1% Triton-X-100, 0.1% […] and protease inhibitors; the same lysis buffer was used to prepare cell culture lysates. Following lysis, the samples were centrifuged (10 minutes at 13,500 g; at 4° C.) to remove insoluble material. Immediately prior to polyacrylamide electrophoresis, additional SDS (to 2% final concentration), glycerol (to 2% final concentration), β-mercaptoethanol (to 2% final concentration) and dithiothreitol (2 mM final concentration) were added. Proteins were separated electrophoretically on 7% acrylamide gels and transferred onto polyvinylidene difluoride (PVDF) membranes. […]
# The primary antibodies were conjugated with either peroxidase-labeled donkey anti-rabbit IgG (GE Healthcare Amersham (Piscataway, USA) cat# NA934) or peroxidase-labeled goat anti-mouse IgG (GE Healthcare Amersham cat# NA931) secondary antibodies. […] Developed films were evaluated densitometrically using “Image J” software (freely available from the NIH); digital images were evaluated with Image Lab software (Bio-Rad). […]
# [2] = tested on: mice with heart failure; assay: Golgi stain / Sholl analysis of cortical neuron dendrite morphology in heart failure mice; assay type: in vivo, mouse; conditions: 3 mg/kg i.p. daily for 2 weeks
# Text: Brains were perfused with heparinized saline via transcardiac perfusion, isolated and processed stained utilizing a commercially available Rapid GolgiStain kit (FD NeuroTechnologies Inc.; Columbia, USA). The kit uses a modified Golgi-Cox staining procedure originally described by Glaser and Van der Loos (24). Briefly, isolated brain tissue samples were immersed in a kit-provided solution containing mercuric chloride, potassium dichromate and potassium chromate in the dark for 8 days; this was followed by a 6-day incubation with tissue protection solution. The brain samples were then washed, embedded in 4% low gelling agarose, sectioned in the coronal plane (150 μm thickness; Campden Instruments 7000 smz-2 vibrating microtome) and mounted onto gelatin-coated glass slides. The staining procedure was then completed using kit-provided developing/staining reagents, according to the manufacturer's instructions. […] We analyzed both the basal and apical dendrite networks of pyramidal cortical neurons from the frontal cortex, using a quantitative approach originally described by Shall (25). We utilized Image J software coupled with the semi-automated Simple Neurite Tracer plugin (both freely available from the NIH) to identify and digitally isolate the dendrite networks of a single cortical neuron from a 200× magnification hyperstack image. The center of the soma was marked with the pointer tool; dendrite morphology was then characterized by Sholl analysis (see https://imagej.net/Sholl_Analysis, version 3.7.4), using 5 μm intervals to a maximal radius of 300 μm. This analysis characterizes dendrite morphology in terms of dendrite intersections (i.e., branching) and dendrite length. For each treatment group, 2-4 neurons per mouse from 4 mice were analyzed under blinded conditions. To assess dendritic spine density (i.e., the number of small protrusions found on dendrites), we imaged 3rd branch order dendritic segments at 100× magnification. Spine density was measured as the number of spines per segment for the following segments: 20-50 μm from soma; 30-60 μm from soma; 50-80 μm from soma; and 60-100 μm from soma). This “sliding measurement” approach permits an assessment of how spine density changes over the length of dendritic branch. For each treatment group, spine density was measured in 2-4 pyramidal cortical neurons (2-4 third order branches per neuron) per mouse from 3-4 mice per group, under blinded conditions.
# [3] = tested on: mice with heart failure; assay: MRI T2 mapping of cerebral edema in heart failure mice; assay type: in vivo, mouse; conditions: HF mice, 3 mg/kg daily for 2 days
# Method: Magnetic resonance imaging-based edema measurement: Edema was assessed by quantitative T2 mapping (12), using a 7 Tesla micro-MRI system (Bruker Corporation Biospec 70/30 USR; Ettlingen, Germany). The T2 mapping acquisition generated quantitative T2 maps in 9 contiguous 2D axial slices, with 1 mm thickness, covering the volume from the fore-brain through to the hind-brain. T2 maps were generated from T2-weighted images at echo times from 12 to 384 ms, using in-line Bruker software, via linear regression of the logarithmically-transformed signal magnitudes and the echo times on a per voxel basis. The T2 values were extracted using MIPAV software, using manually drawn regions-of-interest placed within the fore-, middle- and hind-brain T2 maps.
compound,measurement,setting,value
"O=C(Nc1ncc(C(c2ccccc2Cl)N2CCC(O)C2)s1)C1(c2ccc3c(c2)OCO3)CC1 (stereo not shown) [C18, 1-(benzo[d][1,3]dioxol-5-yl)-N-(5-((2-chlorophenyl)(3-hydroxypyrrolidin-1-yl)methyl)thiazol-2-yl)cyclopropanecarboxamide]",cerebral artery CFTR protein expression in HF,[1],restores; also recorded: eliminates this reduction
same,"mean apical dendrite length (maximum radius), HF-induced reduction",[2],normalized
same,"mean basal dendrite length (maximum radius), HF-induced reduction",[2],normalized
same,apical dendrite branching morphology (Sholl analysis),"[2]; HF mice, sham vs HF vs HF+C18",No differences
same,basal dendrite branching morphology (Sholl analysis),"[2]; HF mice, sham vs HF vs HF+C18",no differences
same,"mean apical dendrite spine density at 60-100 μm from soma, group difference","[2]; HF mice, sham vs HF vs HF+C18",does not reach statistical significance
same,cerebral edema (T2 relaxation times),[3],neither HF nor C18 treatment in the context of HF induces evident edema; also recorded: does not induce edema; also recorded: Neither HF nor C18 treatment in HF mice induces an alteration
